The values below come from US20110245242A1, “Heterocyclically Substituted Anilinopyrimides” (Bayer CropScience AG, priority 2008, published 2011).

The series in a line: log P by LC-MS, method [b], acid range pH 2.7. The note with it: pH 2.7. It counts as physicochemical. On the procedure:
The log P values were measured in accordance with EEC Directive 79/831 Annex V.A8 by HPLC (High Performance Liquid Chromatography) on reversed-phase columns (C 18) using the methods below:
[b] The LC-MS determination in the acid range was carried out at pH 2.7 using the mobile phases 0.1% aqueous formic acid and acetonitrile (contains 0.1% formic acid)
linear gradient from 10% acetonitrile to 95% acetonitrile.

Take `COCC(C)Nc1nc(Nc2ccc(N3C(=O)OCC3C)cc2)ncc1Cl` (stereo not shown) [Example 3]: the log p is 1.54[b]. The same measure for `COCC(C)Nc1nc(Nc2ccc(N3C(=O)OCC3C)cc2)ncc1Br` (stereo not shown) [Example 4]: 1.61[b]; for `COCC(C)Nc1nc(Nc2cccc(N3CCCC3=O)c2)ncc1Br` (stereo not shown) [Example 5]: 1.6[b].

In the case of `COCC(C)Nc1nc(Nc2ccc(N3CCOC3=O)cc2)ncc1Cl` (stereo not shown) [Example 12], the log p was 1.46[b]. The value for `O=c1ccccn1-c1cccc(Nc2ncc(Cl)c(NC3CCC3)n2)c1` [Example 16] was 2.17[b]. The value for `O=C1OCCN1c1ccc(Nc2ncc(Cl)c(NCC(F)(F)F)n2)cc1` [Example 23] was 1.83[b]; that for `COCC(C)Nc1nc(Nc2cccc(N3CCCC3=O)c2)ncc1C#N` (stereo not shown) [Example 24] was 1.99[b]; that for `CC1(C)CC(=O)N(c2cccc(Nc3ncc(Cl)c(NC4CCC4)n3)c2)C1=O` [Example 29] was 2.07[b].

For `CCC1COC(=O)N1c1cccc(Nc2ncc(Br)c(NC3CCC3)n2)c1` (stereo not shown) [Example 34], the log p is 2.24[b]. The value for `CCC1COC(=O)N1c1cccc(Nc2ncc(Cl)c(NC3CCC3)n2)c1` (stereo not shown) [Example 35] was 2.09[b]; that for `CC1CCC(=O)N1c1cccc(Nc2ncc(Cl)c(NC3CCC3)n2)c1` (stereo not shown) [Example 37] was 1.83[b]. The value for `O=C1CCCN1c1cccc(Nc2ncc(Cl)c(NC3CCCC3)n2)c1` [Example 42] was 1.92[b]; that for `CC1(C)CN(c2cccc(Nc3ncc(Br)c(NC4CC4)n3)c2)C1=O` [Example 52] was 2.18[b]; that for `CC1(C)CN(c2cccc(Nc3ncc(Cl)c(NC4CC4)n3)c2)C1=O` [Example 53] was 2.07[b].

Take `CC(C)Nc1nc(Nc2ccc(N3CCOC3=O)cc2)ncc1Cl` [Example 64]: the log p was 1.49[b].

Consider `CC1CC(=O)N(c2cccc(Nc3ncc(Br)c(NC4CC4)n3)c2)C1=O` (stereo not shown) [Example 66], for which the log p is 1.78[b]. The value for `COCC(C)Nc1nc(Nc2cccc(N3CCOC3=O)c2)ncc1Cl` (stereo not shown) [Example 67] was 1.54[b]. The value for `COCC(C)Nc1nc(Nc2cccc(N3C(=O)CC(C)C3=O)c2)ncc1Cl` (stereo not shown) [Example 68] was 1.59[b]; that for `COCC(C)Nc1nc(Nc2cccc(N3CCOC3=O)c2)ncc1Br` (stereo not shown) [Example 69] was 1.61[b]. The value for `COCC(C)Nc1nc(Nc2cccc(N3C(=O)CC(C)C3=O)c2)ncc1Br` (stereo not shown) [Example 70] was 1.68[b]; that for `CC1CC(=O)N(c2cccc(Nc3ncc(Cl)c(NCC4CC4)n3)c2)C1=O` (stereo not shown) [Example 71] was 1.68[b]. For `O=C1OCCN1c1cccc(Nc2ncc(Br)c(NC3CCC3)n2)c1` [Example 72], the log p was 1.8[b]. The same measure for `CC1CC(=O)N(c2cccc(Nc3ncc(Br)c(NCC4CC4)n3)c2)C1=O` (stereo not shown) [Example 74]: 1.78[b]. The value for `CC(C)[C@@H]1COC(=O)N1c1cccc(Nc2ncc(Cl)c(NC3CC3)n2)c1` [Example 75] was 2.39[b]; that for `CC1CC(C)N(c2cccc(Nc3ncc(Cl)c(NC4CCC4)n3)c2)C1=O` (stereo not shown) [Example 80] was 2.2[b]; that for `CN(c1cccc(N2CCCC2=O)c1)c1ncc(Cl)c(NC2CCC2)n1` [Example 83] was 1.63[b]. For the compound `CC1CC(C)N(c2cccc(Nc3ncc(Br)c(NC4CCC4)n3)c2)C1=O` (stereo not shown) [Example 85], the log p is 2.3[b].

Consider `O=C1OCC(c2ccccc2)N1c1cccc(Nc2ncc(Cl)c(NC3CC3)n2)c1` (stereo not shown) [Example 88], for which the log p is 2.27[b]. As for `O=C1OCC(c2ccccc2)N1c1cccc(Nc2ncc(Cl)c(NC3CCC3)n2)c1` (stereo not shown) [Example 89], the log p is 2.65[b]. The value for `O=C1OCC(c2ccccc2)N1c1cccc(Nc2ncc(Br)c(NC3CCC3)n2)c1` (stereo not shown) [Example 90] was 2.8[b]. The same measure for `O=C1OCC(c2ccccc2)N1c1cccc(Nc2ncc(Br)c(NC3CC3)n2)c1` (stereo not shown) [Example 91]: 2.3[b]; for `C[C@H]1COC(=O)N1c1cccc(Nc2ncc(Cl)c(NC3CCC3)n2)c1` [Example 93]: 1.82[b]; for `C[C@H]1COC(=O)N1c1cccc(Nc2ncc(Br)c(NC3CC3)n2)c1` [Example 95]: 1.65[b]. The same measure for `CC1CC(=O)N(c2cccc(Nc3ncc(Cl)c(NC4CC4)n3)c2)C1` (stereo not shown) [Example 96]: 1.75[b]; for `CC1CC(=O)N(c2cccc(Nc3ncc(Cl)c(NC4CCC4)n3)c2)C1` (stereo not shown) [Example 97]: 2.02[b]; for `CC1CC(=O)N(c2cccc(Nc3ncc(Br)c(NC4CCC4)n3)c2)C1` (stereo not shown) [Example 98]: 2.16[b]. With `CC(C)[C@H]1COC(=O)N1c1cccc(Nc2ncc(Cl)c(NC3CCC3)n2)c1` [Example 100], the log p was 2.38[b].

As for `CC(C)[C@@H]1COC(=O)N1c1cccc(Nc2ncc(Cl)c(NC3CCC3)n2)c1` [Example 101], the log p was 2.38[b]. The value for `C[C@@H]1COC(=O)N1c1cccc(Nc2ncc(Br)c(NC3CC3)n2)c1` [Example 104] was 2.03[b]; that for `Cc1ccc(Nc2ncc(Cl)c(NC3CCC3)n2)cc1N1CCOC1=O` [Example 105] was 1.6[b]; that for `CC(C)[C@H]1COC(=O)N1c1cccc(Nc2ncc(Cl)c(NCC3CC3)n2)c1` [Example 109] was 2.17[b]. The value for `CC(C)Nc1nc(Nc2cccc(N3C(=O)OC[C@@H]3C(C)C)c2)ncc1Cl` [Example 110] was 2.1[b]; that for `CC(C)[C@H]1COC(=O)N1c1cccc(Nc2ncc(Cl)c(NCC(F)(F)F)n2)c1` [Example 111] was 2.81[b]. Consider `CC(C)[C@H]1COC(=O)N1c1cccc(Nc2ncc(Cl)c(NCC(F)F)n2)c1` [Example 112], for which the log p is 2.39[b].

As to `CC1CCN(c2cccc(Nc3ncc(Cl)c(NC4CCC4)n3)c2)C1=O` (stereo not shown) [Example 113], the log p is 2.01[b]. The value for `CC(C)Nc1nc(Nc2cccc(N3CCCCC3=O)c2)ncc1Cl` [Example 114] was 1.46[b]; that for `CC1COC(=O)N1c1cccc(Nc2ncc(Cl)c(NCC3CC3)n2)c1` (stereo not shown) [Example 116] was 1.64[b]. The value for `COCC(C)Nc1nc(Nc2cccc(N3C(=O)OC[C@@H]3C(C)C)c2)ncc1Cl` (stereo partly shown) [Example 117] was 2.1[b]; that for `CC(C)C1COC(=O)N1c1cccc(Nc2ncc(Br)c(NCC3CC3)n2)c1` (stereo not shown) [Example 128] was 2.28[b]; that for `CC(C)Nc1nc(Nc2cccc(N3C(=O)OCC3C(C)C)c2)ncc1Br` (stereo not shown) [Example 129] was 2.24[b].

Regarding `CC(C)C1COC(=O)N1c1cccc(Nc2ncc(Br)c(NCC(F)F)n2)c1` (stereo not shown) [Example 130], the log p is 2.5[b].

With `CC1(C)CC(=O)N(c2cccc(Nc3ncc(Br)c(NCC4CC4)n3)c2)C1=O` [Example 132], the log p was 2.02[b]. The value for `CC1CCC(=O)N1c1cccc(Nc2ncc(Br)c(NCC3CC3)n2)c1` (stereo not shown) [Example 133] was 1.77[b]; that for `CC(C)Nc1nc(Nc2cccc(N3CCCCC3=O)c2)ncc1Br` [Example 134] was 1.57[b]; that for `O=C1CCCCN1c1cccc(Nc2ncc(Br)c(NCC(F)F)n2)c1` [Example 135] was 1.75[b].
